# Patent US5607967A, “Treatment of alzheimer's disease with 5-(tetradecyloxy)-2-furan carboxylic acid” (Merck & Co., Inc., priority 1994, dated 1997)
# How the values were obtained:
# GR/NER chimeric receptor [1] = assay: Activation of GR/NER in CV1 cells (luciferase); details: for Fold of stimulation GR/NER: no TOFA
# Method: The ligand dependent transcription assays were performed as described in Example 4, using CV1 cells in place of COS cells. The transfected CV1 cells were treated with dopamine, TOFA, or with a combination of TOFA and dopamine at the indicated concentrations and tested for luciferase activity.
# CV1 cells were co-transfected with the MMTV-Luciferase reporter gene (pJA358) and the GR/NER chimeric receptor as described in Example 4. The cells were treated with increasing amount of the dopamine D1 receptor antagonist SCH 23390 with or without 50 μM […] dopamine.
# GR/NER chimeric receptor [2] = assay: Activation of GR/NER in COS-7 cells (luciferase); details: for Fold of stimulation GR/NER: no TOFA
# Method: The ligand dependent transcription assays were performed as described in Example 4. The transfected COS cells were treated with dopamine, TOFA, or with the combination of TOFA and dopamine at the indicated concentrations and tested for luciferase activity.
# [3] = test system: Dopamine D2 receptor antagonist (Haloperidol) induced catalepsy; assay: Haloperidol induced catalepsy (Bar method); assay type: in vivo, rat; details: carrier pretreatment, 24 h later 0.1 mg/kg Haloperidol
# GR/NER chimeric receptor [4] = assay: Ligand dependent transcription assay, GR/NER chimeric receptor with MMTV-luciferase reporter; assay type: cell-based, human
# Method: To search for putative ligands for the NER receptor, the chimeric receptor GR/NER was prepared. […] Chimeric receptors were prepared in which the amino terminal portion of the mouse glucocorticoid receptor (mGR) that includes the DNA binding domain was fused to the putative ligand binding domains of the nuclear receptor NER to form the respective chimeric receptor GR/NER. The cDNA sequences coding for amino acid residues Arg^155 and Glu^156 of the hNER receptor (Shinar et al., NER, a new member of a gene family encoding the steroid hormone nuclear receptor; GENE (in press) were convened to the Xho I restriction site, which site was later used for the ligation to the GR cDNA sequences that coded for the DNA binding domain. Thus, the amino acid residues Arg^155 and Glu^156 of the NER receptor were convened to amino acid residues Ser^155 and His^156.
# The chimera was employed in ligand dependent transactivation assays with the reporter gene MMTV-luciferase, in which the luciferase cDNA is transcribed under the control of the MMTV promoter.
# (§1) Similar hybrid receptors GR/NER, GR/NUC and GR/PPAR, in identical expression plasmid backgrounds were prepared essentially as described for the construction of the GR/mPPAR and GR/NUC chimeric receptors in Schmidt et al., "Identification of a new member of the steroid hormone receptor superfamily that is activated by a peroxisome proliferator and fatty acids," Mol. Endocrinol., 6(10):1634-41, 1992, and in Boie et al., "Enantioselective activation of the peroxisome proliferator-activated receptor", J. Biol. Chem. 268(8):5530-4, 1993.
# (§2) Briefly, the amino terminal portion of the mouse glucocorticoid receptor (mGR), that includes the DNA binding domain was fused to the putative ligand binding domains of the nuclear receptor NER, hNUC-I (Schmidt et al., 1992), mPPAR (Issenmann and Green, 1990) to form the respective chimeric receptors GR/NER, GR/NUC and GR/PPAR. The GR/NER chimeric receptor was constructed as described for the GR/NUC and GR/PPAR hybrid receptors (Schmidt et al., 1992; Boie et al). The cDNA sequences coding for amino acids Arg^155 and Glu^156 of the NER receptor were converted to the Xho I restriction site, that was later used for the ligation to the GR cDNA sequences that coded for the DNA binding domain. Thus, converting amino acid residues Arg^155 and Glu^156 of NER receptor to amino acid residues Ser^155 and His^156.
# GR/NUC chimeric receptor = target: T1, GR/NUC chimeric receptor (Homo sapiens, UniProt Q03181); assay: Ligand dependent transcription assay, GR/NUC chimeric receptor with MMTV-luciferase reporter; assay type: cell-based
# T1 construct: transfected cells, MMTV-luciferase
# T1 sequence (Q03181 1-441): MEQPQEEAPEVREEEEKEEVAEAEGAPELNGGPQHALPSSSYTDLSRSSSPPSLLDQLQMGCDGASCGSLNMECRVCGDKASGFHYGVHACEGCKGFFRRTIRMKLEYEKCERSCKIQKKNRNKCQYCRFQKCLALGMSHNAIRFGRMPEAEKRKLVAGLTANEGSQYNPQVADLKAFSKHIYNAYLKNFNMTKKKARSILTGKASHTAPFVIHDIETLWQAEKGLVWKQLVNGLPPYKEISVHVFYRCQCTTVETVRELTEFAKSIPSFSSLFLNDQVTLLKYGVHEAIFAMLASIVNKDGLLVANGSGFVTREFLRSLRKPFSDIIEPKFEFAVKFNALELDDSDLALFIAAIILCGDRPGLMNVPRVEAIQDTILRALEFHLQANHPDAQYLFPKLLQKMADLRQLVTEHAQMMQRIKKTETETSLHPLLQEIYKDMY
# T1 sequence (P06537 1-792 partner): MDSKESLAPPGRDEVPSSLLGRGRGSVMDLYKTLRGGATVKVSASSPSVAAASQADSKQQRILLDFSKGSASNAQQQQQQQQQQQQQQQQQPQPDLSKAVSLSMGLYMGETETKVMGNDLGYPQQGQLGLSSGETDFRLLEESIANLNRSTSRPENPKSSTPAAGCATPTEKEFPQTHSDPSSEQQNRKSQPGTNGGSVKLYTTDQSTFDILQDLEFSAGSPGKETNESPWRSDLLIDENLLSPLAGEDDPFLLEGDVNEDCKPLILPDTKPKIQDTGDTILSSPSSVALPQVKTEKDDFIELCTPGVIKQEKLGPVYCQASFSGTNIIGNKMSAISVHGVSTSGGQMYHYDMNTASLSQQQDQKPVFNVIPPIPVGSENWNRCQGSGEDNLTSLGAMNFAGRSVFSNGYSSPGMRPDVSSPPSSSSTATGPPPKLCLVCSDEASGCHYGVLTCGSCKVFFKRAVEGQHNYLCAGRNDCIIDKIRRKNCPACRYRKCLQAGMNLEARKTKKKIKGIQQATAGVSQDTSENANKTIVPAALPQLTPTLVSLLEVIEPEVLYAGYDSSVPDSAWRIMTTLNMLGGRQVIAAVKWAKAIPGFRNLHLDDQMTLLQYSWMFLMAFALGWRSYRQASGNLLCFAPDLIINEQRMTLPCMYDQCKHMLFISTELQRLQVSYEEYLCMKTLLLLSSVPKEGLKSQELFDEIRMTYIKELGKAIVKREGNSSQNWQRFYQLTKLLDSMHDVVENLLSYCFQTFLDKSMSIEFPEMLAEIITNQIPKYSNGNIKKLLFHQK
# Method: as §1, §2
# [5] = target: T2, GR/PPAR chimeric receptor (Mus musculus, UniProt P23204); assay: Ligand dependent transcription assay, GR/PPAR chimeric receptor with MMTV-luciferase reporter; assay type: cell-based
# T2 construct: COS cells, MMTV-luciferase
# T2 sequence (P23204 1-468): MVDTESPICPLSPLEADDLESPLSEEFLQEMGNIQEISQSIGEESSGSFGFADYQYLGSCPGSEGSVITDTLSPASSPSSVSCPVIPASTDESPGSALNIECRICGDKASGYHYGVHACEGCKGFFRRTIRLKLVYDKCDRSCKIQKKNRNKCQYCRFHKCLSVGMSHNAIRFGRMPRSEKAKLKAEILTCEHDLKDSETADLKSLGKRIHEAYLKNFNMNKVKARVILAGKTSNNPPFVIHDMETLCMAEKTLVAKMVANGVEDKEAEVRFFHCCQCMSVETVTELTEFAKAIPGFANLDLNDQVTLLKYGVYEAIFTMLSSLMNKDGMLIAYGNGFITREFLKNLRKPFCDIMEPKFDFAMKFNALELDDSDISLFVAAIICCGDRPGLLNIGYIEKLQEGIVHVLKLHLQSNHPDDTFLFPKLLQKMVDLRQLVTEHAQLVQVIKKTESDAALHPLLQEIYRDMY
# T2 sequence (P06537 1-792 partner): T1 sequence (P06537 1-792 partner)
# Method: as §1, §2
# The ligand transcription assay mediated by GR/PPAR in COS cells was performed as described in Example 4. The cells were treated with TOFA and Cerulenin at 0.1, 1, 10 and 100 μM.
# [6] = target: T2, GR/PPAR chimeric receptor; assay: as above; assay type: cell-based; details: read-out: Fold of stimulation GR/PPAR
# human NUCI receptor = target: T3, human NUCI receptor (Homo sapiens, UniProt Q03181); assay: Transcription assay, native NUC-I receptor co-transfected with MMTV-luciferase reporter; details: read-out: Fold of stimulation NUC-I
# T3 sequence (Q03181 1-441): T1 sequence (Q03181 1-441)
# Method: (§3) The reporter gene was the plasmid pJA358 in which the expression of firefly luciferase is regulated by two tandem repeats of the glucocorticoid hormone response element (GRE) linked to the MMTV promoter (Boie et al., 1993).
# (§4) Transient transfection of COS and CV1 cells was performed as described (Schmidt 1992). Cells were plated (1.5×10^5 in 1 mL) into 12 well dishes in phenol red-free medium supplemented with activated charcoal treated fetal calf serum. The next day 0.12 mL of DNA 10 μg/ml (5 μg receptor DNA and 5 μg reporter plasmid), as a calcium phosphate precipitate, was added to the cells. Ligands were added to the cells 30 minutes after transfection. The next day (18 hours), the cells were washed and fresh ligands added. Twenty-four hours later, cell extracts were prepared and assayed for luciferase enzyme activity using the luciferase assay system (Promega Madison, Wis.). Each transfection was performed in triplicate and the luciferase activity of each sample measured in duplicate using the AutoClinilumat (Berthold Nashua, N.H.).
# (§5) The transfected cells were treated with TOFA at 2 μM, 10 μM, 20 μM, and 50 μM and oleic acid at 50 μM, and 300 μM.
# [7] = target: T4, native mouse glucocorticoid receptor (Mus musculus, UniProt P06537); assay: Transcription assay, native glucocorticoid receptor co-transfected with MMTV-luciferase reporter; details: read-out: Fold of stimulation GR
# T4 sequence (P06537 1-792): T1 sequence (P06537 1-792 partner)
# Method: as §3, §4, §5
smiles,measurement,setting,value
"NCCc1ccc(O)c(O)c1 [Dopamine, dopamine]",Effect on transcription mediated by GR/NER in CV1 cells,GR/NER chimeric receptor [1],suppressed the transcription
same,Fold of stimulation GR/NER,GR/NER chimeric receptor [1]; dopamine 0.1 μM,1.28 ± 0.05 fold
same,Fold of stimulation GR/NER,GR/NER chimeric receptor [1]; dopamine 1.0 μM,0.88 ± 0.11 fold
same,Fold of stimulation GR/NER,GR/NER chimeric receptor [1]; dopamine 10 μM,0.55 ± 0.06 fold
same,Fold of stimulation GR/NER,GR/NER chimeric receptor [1]; dopamine 100 μM,0.44 ± 0.14 fold
same,Fold of stimulation GR/NER,"GR/NER chimeric receptor [2]; dopamine 0.1 μM, 1440 min",1.10 ± 0.07 fold
same,Fold of stimulation GR/NER,GR/NER chimeric receptor [2]; dopamine 1.0 μM,0.87 ± 0.06 fold
same,Fold of stimulation GR/NER,"GR/NER chimeric receptor [2]; dopamine 10 μM, 1440 min",0.84 ± 0.08 fold
same,Fold of stimulation GR/NER,"GR/NER chimeric receptor [2]; dopamine 100 μM, 1440 min",0.87 ± 0.11 fold
same,Suppression of GR/NER mediated transcription in COS-7 cells,GR/NER chimeric receptor [2]; no significant dopamine D1 receptor expression,suppression was not seen
"O=C(CCCN1CCC(O)(c2ccc(Cl)cc2)CC1)c1ccc(F)cc1 [Haloperidol, haloperidol, reference compound]",Catalepsy Duration,[3],20.3 ± 6.7 s
"CCCCCCCC/C=C\CCCCCCCC(=O)O [Oleic Acid, oleic acid, reference compound]",Expression mediated by GR/NER,GR/NER chimeric receptor [4],not by the GR/NER chimera
same,Fold of stimulation GR/NER,GR/NER chimeric receptor [4]; 50 μM,0.90 ± 0.13 fold
same,Fold of stimulation GR/NER,GR/NER chimeric receptor [4]; 300 μM,0.73 ± 0.21 fold
same,Expression mediated by GR/NUC,GR/NUC chimeric receptor,activated expression
same,fold induction at 150 µM,GR/NUC chimeric receptor; read-out: Fold of stimulation GR/NUC,3.42 ± 0.28
same,Expression mediated by GR/PPAR,[5],activated expression
same,fold induction at 50 µM,[6],2.87 ± 0.2
same,fold induction at 300 µM,[6],14.69 ± 0.06
same,fold induction at 150 µM,human NUCI receptor,0.55 ± 0.08
same,fold induction at 150 µM,[7],0.44 ± 0.17
